According to patent publication US20260108588A1, “A COMPLEX COMPRISING A ALPHA-LACTALBUMIN AND A FATTY ACID OR LIPID FOR USE IN THE TREATMENT OR PREVENTION OF CANCER” (LINNANE PHARMA AB, priority 2022, published 2026):

What was measured:
PD-1 = PD-1 staining of intestinal sections; format: in vivo, mice; settings: tumor and healthy tissue areas, long-term drinking water, vs sham
Description: For PD-1 immunofluorescence staining, paraffin sections were deparaffinized in xylene, rehydrated with reduced ethanol concentrations and then washed with deionized water. The slides were then immerged in target retrieval solution (Dako, S1699) and boiled for 20 minutes, followed by 30 minutes permeabilization with 0.25% Triton in PBS at room temperature. A blocking solution consisting in 5% goat serum in PBS was added on the sections for 1 h at room temperature, before adding the rabbit monoclonal anti-mouse PD-1 antibody (Abcam-ab214421, 1:150) in 1% goat serum and incubated overnight at 4° C. The slides were then washed with 0.025% PBS-T and stained with goat anti-rabbit […] secondary antibody (1:200 for 1 h at room temperature, Invitrogen cat. n. A11034). The nuclei were counterstained with DAPI for 15 minutes, washed in PBS, and then mounted with Fluoromount aqueous mounting media (Sigma, F4680). Images were captured with the Hamamatzu Nanozoomer scanner and the fluorescence intensity was quantified by ImageJ.

[1] = system: intestine of tumor bearing APC^Min/+ mice; assay: Real-time in vivo fluorescence imaging and immunohistochemistry of BAMLET in tumor-bearing mice
Source text: (§1) Swiss rolls of longitudinally opened intestinal segments were fixed overnight in 10% neutral buffered formalin. Samples were embedded in paraffin and 5 μm thick sections were further processed for histology and immunohistochemistry using antibodies for bovine alpha-Lactalbumin (ThermoFisher Scientific, Cat #A10-128A), β-catenin (CellSignaling, Cat #9562), Cyclin D1 (ThermoFisher Scientific, Cat #SC8396), Ki-67 (BD Biosciences, Cat #556003), VEGF (Abcam, Cat #ab46154), PD-1 (Abcam, Cat #ab214421) and TTF-1 (Abcam, Cat #ab227652) as previously described^28 with slight modifications. Citrate buffer (Dako Target Retrieval Solution, Agilent, Cat #S1699) was used for antigen retrieval for Cyclin D1, Ki-67, VEGF, bovine alpha-Lactalbumin and β-catenin staining. EDTA buffer (Abcam, Cat #ab64216) was used for antigen retrieval for TTF-1 staining. Immunohistochemistry was quantified by ImageJ. For Hematoxylin-Eosin (H&E) staining, Hematoxylin (ThermoFisher Scientific, Cat #7211) was used followed by Eosin-Y (ThermoFisher Scientific, Cat #7111) for counterstaining. Images were captured using the AX10 microscope or the Hamamatzu Nanozoomer scanner (Carl Zeiss) and the DAB-positive beta-catenin antibody fields (4-10) for each organ cross-sections were quantified by ImageJ.
BAMLET was labeled using VivoTag 680XL Protein Labeling Kit (Perkin Elmer). Apc^Min/+ mice were orally gavaged with 10 mg of VivoTag 680-labelled BAMLET in 200 μl of PBS. The intestinal tissue samples were collected after 24 hours or 48 hours and imaged using an IVIS Spectrum imaging system (Perkin Elmer). BAMLET signal was acquired at fluorescent settings with 680 nm excitation.

[2] = system: DLD1 colorectal adenocarcinoma cells; assay: TUNEL assay; format: cell-based, human; settings: 7 μM, 21 μM and 35 μM, one hour
Description: DNA fragmentation was detected using the terminal deoxynucleotidyl transferase dUTP nick end-labeling (TUNEL) assay (Click-IT TUNEL Alexa Fluor 488 imaging assay kit, ThermoFisher Scientific, #C10245). DLD1 cells were seeded in 8-well chamber slide (2×10^4 cells/well) cultured overnight (37° C., 5% CO2) and incubated with BAMLET 7 μM, 21 μM and 35 μM for one hour in serum-free RPMI-1640 at 37° C. Cells were fixed (2% PFA, 15 minutes), permeabilized (0.25% Triton X-100 in PBS, 20 minutes) and incubated with TUNEL reaction mixture containing TdT for 60 minutes at 37° C. After the TUNEL reaction, cells were incubated with Click-iT reaction mixture for 30 minutes. Cells were counterstained with Hoechst 33342 (1:1000, 15 minutes, ThermoFisher Scientifi, Cat #62249), mounted in Fluoromount aqueous mounting media (Sigma, Cat #4680), and examined by LSM 900 confocal microscopy (Carl Zeiss). Fluorescence intensities were quantified by ImageJ.

[3] = system: lungs, livers, kidneys and spleens of Apc^Min/+ mice; assay: Macroscopy, histology and immunohistochemistry of organs outside the intestine of Apc^Min/+ mice, long-term drinking water; format: in vivo
Description: For BAMLET prophylaxis protocol, ten-week-old female Apc^Min/+ mice (n=10 mice per group) were provided daily with BAMLET (20 mg/day in 5 ml PBS) in the drinking water for eight weeks and sacrificed at 18 weeks of age. A similar treatment was used in the survival study groups where mice were observed until 37 weeks of age.
as §1

[4] = system: intestinal tumors of Apc^Min/+ mice; assay: Intestinal cancer model in Apc^Min/+ mice, BAMLET oral gavage, tumor enumeration and histology; format: in vivo
Description: Apc^Min/+ mice were obtained from Jackson Laboratories at about eight weeks of age. Genotyping was performed by PCR analysis of genomic DNA obtained from blood collected from the retro-orbital sinus. Multiple tumors were developed in the small intestine at eight to ten weeks. Mice were acclimated for about two weeks at the local animal facility at BMC, Lund University in order to reduce stress from transportation.
For BAMLET therapeutic protocol, ten-week-old female mice (n=10 per group) were orally gavaged with 20 mg of BAMLET in 400 μl PBS, twice daily for ten days. Mice were not given water or food five hours prior to BAMLET administration. Food and water were provided 30 minutes after BAMLET oral administration. Sham treated mice were gavaged with 400 μl PBS. Mice were sacrificed two weeks and five weeks after the end of the treatment and intestinal tissue samples were collected for further analysis.
Mice were sacrificed by isoflurane inhalation. Tumor enumeration and sample collection was presented as previously described^28. Tumor numbers and size were determined using a dissecting microscope (Olympus) and evaluated by three blinded investigators.
The opened intestinal segments were spread flat between sheets of filter paper and fixed overnight in 10% neutral buffered formalin. Formalin-fixed sections were transferred to 70% ethanol and stained with 0.2% methylene blue (Sigma, #M9140). Stained sections were rinsed in deionized water and imaged by a dissecting microscope.
as §1

[5] = system: intestine of healthy C57BL/6 mice; assay: Real-time in vivo fluorescence imaging of BAMLET in healthy mice; settings: oral gavage

## BAMLET
PD-1
  PD-1 staining: significantly lower
[1]; 18-week-old APC^Min/+ mice, oral gavage, after 24 and 48 hours
  retention of VivoTag 680-labeled BAMLET in the intestine: Significant retention
[1]; after the first oral dose
  time retained in tumor tissue: at least 48 hours
[1]; immunohistochemistry with BAMLET specific antibodies
  BAMLET staining in intestinal tissue sections: detected
[2]
  TUNEL staining (DNA strand breaks): Dose-dependent increase
[3]; TTF-1 / β-catenin stained lung sections, vs sham
  number of lung areas with proliferating cells: markedly reduced
[3]; immunohistochemistry, in contrast to the intestine
  BAMLET staining in lungs, livers or kidneys: not detected
[3]; long-term BAMLET in drinking water, vs sham
  β-catenin staining in lungs, livers and kidneys: general reduction
[3]; long-term follow up, vs sham
  macroscopic changes in intestine, peritoneal cavity and major organs: much less apparent
[3]; lung sections, vs sham
  level of TTF-1 staining in areas with proliferating cells: markedly reduced
[4]; 20 mg gavage twice daily for ten days, two and five weeks post oral gavage, vs sham
  total polyp number: lower
[4]; Apc^Min/+ mice, H&E sections, BAMLET vs sham (PBS)
  number of small tumors, fully formed polyps and confluent tumors along the intestinal wall: reduced
[4]; BAMLET treated Apc^Min/+ mice vs sham group, FIG. 1f
  tumor areas: smaller
[4]; after short-term BAMLET treatment, H&E sections
  villus structure: normal villus structure was detected in the majority of sections
[5]
  BAMLET retention in the intestines of healthy mice: lack of BAMLET retention
